# According to US5874597A, “Certain aminosterol compounds and pharmaceutical compositions including these compounds” (priority 1995, dated 1999):
# System: vitelline capillaries of chick embryo
# Assay: chick embryo vitelline capillary regression assay
# Format: in vivo
# Design: key to vitelline capillary regression: +: Vascular reactivity; 0: No vascular reactivity; +/-: Equivocal reactivity
# Conditions: for Chick embryo diss. assay, Minimum Effective Concentration: Table II
# Description: Using the chick embryo vitelline capillaries assay, compounds were tested for their ability to induce capillary regression. Each compound was applied in 0.1 ml of 15% Ficol 400 and PBS onto the embryo, and vascular regression was assessed after 60 minutes.
# The 3-day chick embryo consists of an embryonic disc from which numerous vessels emerge and return, forming a "figure 8"-shaped structure--the embryo in the center with vascular loops extending outward over both poles. […] Following a lag period of around 15 minutes, the constriction of continuity between capillary and secondary vessels, generally on the "venous" side, was observed. Continued pulsatile blood flow progressed, resulting in a "swelling" of the blind tube, followed by a pinching off of the remaining connection and formation of an enclosed vascular sac resembling a "blood island." This process progressed until only the largest vessels remained intact.
SMILES,"Chick embryo diss. assay, Minimum Effective Concentration",also measured
CC(C)CCCC(C)[C@H]1CCC2C3CC[C@H]4C[C@H](NCCCN5CCCCN=C5N)CC[C@]4(C)C3CC[C@@]21C (some centres unmarked),> 10 µg,–
COC(=O)CCC(C)[C@H]1CCC2C3C(CC[C@@]21C)[C@@]1(C)CC[C@H](NCCCNCCCCNCCCN)C[C@H]1C[C@H]3O (some centres unmarked),> 1 µg,–
COC(=O)CCC(C)[C@H]1CCC2C3CC[C@@H]4C[C@H](NCCCNCCCCNCCCN)CC[C@]4(C)C3CC[C@@]21C (some centres unmarked),> 1 µg,–
CC(C)CCCC(C)[C@H]1CCC2C3CC[C@H]4C[C@@H](NCCCNCCCCN)CC[C@]4(C)C3CC[C@@]21C (some centres unmarked),> 10 µg,–
CC(C)CCCC(C)[C@H]1CCC2C3C(CC[C@@]21C)[C@@]1(C)CC[C@H](NCCCNCCCCN)C[C@@H]1C[C@H]3O (some centres unmarked),1 to 10 µg,–
CC(CCC(=O)O)[C@H]1CCC2C3C(CC[C@@]21C)[C@@]1(C)CC[C@@H](NCCN)C[C@H]1C[C@H]3O (some centres unmarked),> 1 µg,–
COC(=O)CCC(C)[C@H]1CCC2C3C(CC[C@@]21C)[C@@]1(C)CC[C@H](NCCN)C[C@H]1C[C@H]3O (some centres unmarked),> 1 µg,–
CC(COS(=O)(=O)O)C(=O)CCC(C)[C@H]1CCC2C3C(CC[C@@]21C)[C@@]1(C)CC[C@H](NCCCNCCCCN)C[C@@H]1C[C@H]3O (some centres unmarked),> 10 µg,–
COC(=O)CCC(C)[C@H]1CCC2C3C(CC[C@@]21C)[C@@]1(C)CC[C@H](NCCCNCCCCNCCCN)C[C@@H]1C[C@H]3O (some centres unmarked),10 µg,–
COC(=O)CCC(C)[C@H]1CCC2C3C[C@@H](O)[C@H]4C[C@H](NCCN)CC[C@]4(C)C3CC[C@@]21C (some centres unmarked),> 1 µg,–
COC(=O)CCC(C)[C@H]1CCC2C3CC[C@@H]4C[C@H](NCCN)CC[C@]4(C)C3C[C@H](O)[C@@]21C (some centres unmarked),> 1 µg,–
CC(CCC(=O)O)[C@H]1CCC2C3C(CC[C@@]21C)[C@@]1(C)CC[C@H](NCCN)C[C@H]1C[C@H]3O (some centres unmarked),> 1 µg,–
COC(=O)CCC(C)[C@H]1CCC2C3C[C@@H](O)[C@H]4C[C@@H](NCCN)CC[C@]4(C)C3CC[C@@]21C (some centres unmarked),> 1 µg,–
CC(CCC(=O)O)[C@H]1CCC2C3C[C@@H](O)[C@H]4C[C@@H](NCCN)CC[C@]4(C)C3CC[C@@]21C (some centres unmarked),1 µg,–
CC(CCC(=O)O)[C@H]1CCC2C3C(CC[C@@]21C)[C@@]1(C)CC[C@H](NCCCNCCCCN)C[C@@H]1C[C@H]3O (some centres unmarked),> 10 µg,–
CC(CCC(=O)O)[C@H]1CCC2C3CC[C@H]4C[C@@H](NCCCNCCCCN)CC[C@]4(C)C3CC[C@@]21C (some centres unmarked),0.001 µg,–
C[C@H](CCC(=O)O)[C@H]1CC[C@H]2[C@@H]3[C@H](O)C[C@@H]4C[C@@H](NCCN)CC[C@]4(C)[C@H]3CC[C@]12C [Compound 415],–,effect on vitelline capillaries / chick embryo (in vivo): especially active
COC(=O)CCC(C)[C@H]1CCC2C3C[C@@H](O)[C@H]4C[C@@H](NCCCNCCCCNCCCN)CC[C@]4(C)C3CC[C@@]21C (some centres unmarked),1 µg,–
COC(=O)CCC(C)[C@H]1CCC2C3CC[C@H]4C[C@@H](NCCCNCCCCNCCCN)CC[C@]4(C)C3CC[C@@]21C (some centres unmarked),> 1 µg,–
CC(C)CCCC(C)[C@H]1CCC2C3C(CC[C@@]21C)[C@@]1(C)CC[C@@H](NCCCNCCCCN)C[C@@H]1C[C@H]3O (some centres unmarked),> 10 µg,–
COC(=O)CC[C@@H](C)[C@H]1CC[C@H]2[C@@H]3[C@H](O)C[C@@H]4C[C@@H](NCCCNCCCCNCCCN)CC[C@]4(C)[C@H]3CC[C@]12C [Compound 411],–,"vitelline capillary regression (0.1 μg applied, 60 min): 0"
CC(CCC(=O)O)[C@H]1CCC2C3C(CC[C@@]21C)[C@@]1(C)CC[C@H](NCCCNCCCCNCCCN)C[C@H]1C[C@H]3O (some centres unmarked),> 1 µg,–
COC(=O)CCC(C)[C@H]1CCC2C3C(CC[C@@]21C)[C@@]1(C)CC[C@@H](NCCN)C[C@H]1C[C@H]3O (some centres unmarked),0.01 µg,–
